The values below come from US11053218B2, “3-(1-oxoisoindolin-2-yl)piperidine-2,6-dione derivatives and uses thereof” (Novartis AG, priority 2017, dated 2021).

Counter-ions that a name gives are not always drawn. Like-named read-outs stand apart in the source and are kept apart here.

In one experiment the target is IKZF2 (Homo sapiens, UniProt Q96SW2+Q9UKS7). The experiment can be described thus: Prolabel quantification of IKZF2 protein levels in 293GT cells. Type of experiment: cell-based.
The target of the next experiment is IKZF1 (Homo sapiens, UniProt Q13422+Q96SW2). The experiment can be described thus: Prolabel quantification of IKZF1 protein levels in 293GT cells. Type of experiment: cell-based. The conditions noted are these: Prolabel assay, read-out: IKZF1 EC50.
Where [1] appears, read: 24 h, 10 μM, 24 h, 293GT cells; read-out: IKZF2 % protein reduction at 10 μM, 24 h.
[2] abbreviates: Prolabel assay, 293GT cells; read-out: IKZF2 EC50.

IKZF1, sequence (Q13422 whole entry): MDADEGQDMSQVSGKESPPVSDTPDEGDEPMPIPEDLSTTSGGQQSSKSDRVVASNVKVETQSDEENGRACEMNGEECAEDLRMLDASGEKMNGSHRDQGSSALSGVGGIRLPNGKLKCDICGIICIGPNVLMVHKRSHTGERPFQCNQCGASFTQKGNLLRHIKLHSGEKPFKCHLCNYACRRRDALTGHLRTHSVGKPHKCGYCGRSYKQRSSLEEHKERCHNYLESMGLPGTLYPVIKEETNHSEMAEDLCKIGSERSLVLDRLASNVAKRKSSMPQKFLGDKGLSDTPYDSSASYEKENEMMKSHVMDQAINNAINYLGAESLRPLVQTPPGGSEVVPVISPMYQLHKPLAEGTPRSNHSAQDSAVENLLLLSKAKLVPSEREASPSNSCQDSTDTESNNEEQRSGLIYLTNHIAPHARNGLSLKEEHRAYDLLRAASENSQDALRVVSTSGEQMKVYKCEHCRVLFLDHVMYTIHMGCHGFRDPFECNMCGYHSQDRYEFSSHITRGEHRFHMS
IKZF1, sequence (Q96SW2 whole entry): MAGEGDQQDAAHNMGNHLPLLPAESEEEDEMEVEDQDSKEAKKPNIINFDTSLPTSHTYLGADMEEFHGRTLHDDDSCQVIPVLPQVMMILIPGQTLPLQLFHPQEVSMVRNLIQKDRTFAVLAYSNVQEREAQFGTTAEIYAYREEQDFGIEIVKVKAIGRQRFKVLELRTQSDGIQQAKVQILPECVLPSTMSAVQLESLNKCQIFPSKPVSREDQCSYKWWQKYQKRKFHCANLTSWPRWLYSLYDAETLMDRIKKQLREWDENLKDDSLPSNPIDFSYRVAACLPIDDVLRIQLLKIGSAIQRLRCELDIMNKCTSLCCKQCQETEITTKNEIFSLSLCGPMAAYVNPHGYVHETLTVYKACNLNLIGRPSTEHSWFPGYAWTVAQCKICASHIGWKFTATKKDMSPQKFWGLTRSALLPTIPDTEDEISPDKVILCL
IKZF1, sequence (Q16531 whole entry partner): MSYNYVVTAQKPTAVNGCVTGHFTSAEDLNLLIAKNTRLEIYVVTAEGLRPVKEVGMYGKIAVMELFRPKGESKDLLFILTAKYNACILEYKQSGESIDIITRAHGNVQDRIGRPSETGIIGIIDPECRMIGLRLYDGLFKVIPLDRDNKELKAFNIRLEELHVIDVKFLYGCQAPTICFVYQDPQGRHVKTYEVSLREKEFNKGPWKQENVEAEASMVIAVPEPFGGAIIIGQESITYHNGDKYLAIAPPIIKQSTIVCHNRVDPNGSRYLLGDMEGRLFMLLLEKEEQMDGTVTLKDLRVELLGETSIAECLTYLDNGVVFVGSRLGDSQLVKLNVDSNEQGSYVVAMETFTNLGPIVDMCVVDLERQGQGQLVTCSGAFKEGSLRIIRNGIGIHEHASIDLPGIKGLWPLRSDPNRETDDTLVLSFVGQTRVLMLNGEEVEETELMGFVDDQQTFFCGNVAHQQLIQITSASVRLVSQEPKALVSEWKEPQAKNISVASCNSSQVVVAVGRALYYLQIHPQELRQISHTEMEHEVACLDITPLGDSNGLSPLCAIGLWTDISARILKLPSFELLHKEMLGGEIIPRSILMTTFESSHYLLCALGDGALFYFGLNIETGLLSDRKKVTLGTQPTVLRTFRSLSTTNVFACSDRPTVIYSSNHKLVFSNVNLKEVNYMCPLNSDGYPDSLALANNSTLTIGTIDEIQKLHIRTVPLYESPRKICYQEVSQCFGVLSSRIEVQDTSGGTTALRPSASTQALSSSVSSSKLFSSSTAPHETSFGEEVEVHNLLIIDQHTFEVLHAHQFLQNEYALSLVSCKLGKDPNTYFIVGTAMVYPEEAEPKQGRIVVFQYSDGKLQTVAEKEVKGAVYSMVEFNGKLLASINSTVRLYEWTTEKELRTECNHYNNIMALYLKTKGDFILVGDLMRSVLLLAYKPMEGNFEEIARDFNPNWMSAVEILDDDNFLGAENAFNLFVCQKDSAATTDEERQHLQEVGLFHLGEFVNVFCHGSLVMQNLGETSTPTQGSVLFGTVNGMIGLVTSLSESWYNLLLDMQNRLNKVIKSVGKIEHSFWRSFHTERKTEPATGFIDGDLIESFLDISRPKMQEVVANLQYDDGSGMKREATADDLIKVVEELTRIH
IKZF2, sequence (Q9UKS7 whole entry): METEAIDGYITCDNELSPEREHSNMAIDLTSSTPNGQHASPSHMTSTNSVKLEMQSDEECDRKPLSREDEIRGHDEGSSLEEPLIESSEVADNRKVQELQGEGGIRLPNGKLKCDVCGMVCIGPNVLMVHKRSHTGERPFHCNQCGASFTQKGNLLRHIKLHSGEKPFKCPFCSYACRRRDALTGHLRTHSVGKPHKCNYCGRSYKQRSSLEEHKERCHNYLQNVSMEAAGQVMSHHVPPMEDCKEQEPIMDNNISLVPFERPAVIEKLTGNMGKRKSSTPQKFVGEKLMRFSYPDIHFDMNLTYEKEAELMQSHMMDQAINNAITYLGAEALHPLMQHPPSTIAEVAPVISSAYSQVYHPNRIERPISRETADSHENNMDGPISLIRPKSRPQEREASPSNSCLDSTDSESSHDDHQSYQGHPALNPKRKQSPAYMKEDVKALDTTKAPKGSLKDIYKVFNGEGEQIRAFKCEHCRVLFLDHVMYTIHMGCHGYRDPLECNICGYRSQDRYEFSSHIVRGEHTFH
IKZF2, sequence (Q96SW2 whole entry): as the sequence (Q96SW2 whole entry) above
IKZF2, sequence (Q16531 whole entry partner): as the sequence (Q16531 whole entry partner) above

`COC(=O)c1coc(CN2CCC(c3ccc4c(c3)CN(C3CCC(=O)NC3=O)C4=O)CC2)n1` (stereo not shown) [Compound I-254, methyl 2-((4-(2-(2,6-dioxopiperidin-3-yl)-1-oxoisoindolin-5-yl)piperidin-1-yl)methyl)oxazole-4-carboxylate]: at IKZF2 (setting [1]), the inhibition at 10 µM amounted to 40%. Besides, the DC50 is 0.68 µM on IKZF2 (setting [2]) and above 30 µM at IKZF1.
As for `O=C1CCC(N2Cc3cc(C4CCN(Cc5cc(F)ccc5F)CC4)ccc3C2=O)C(=O)N1` (stereo not shown) [Compound I-29, 3-(5-(1-(2,5-difluorobenzyl)piperidin-4-yl)-1-oxoisoindolin-2-yl)piperidine-2,6-dione], the inhibition at 10 µM on IKZF2 (setting [1]) worked out at 70%. For the same compound, the DC50 on IKZF2 (setting [2]) is 0.036 µM; on IKZF1, above 30 µM.
For `O=C1CCC(N2Cc3cc(C4CCN(C(c5ccccc5)C(F)(F)F)CC4)ccc3C2=O)C(=O)N1` (stereo not shown) [Compound I-224, 3-(1-oxo-5-(1-(2,2,2-trifluoro-1-phenylethyl)piperidin-4-yl)isoindolin-2-yl)piperidine-2,6-dione HC(O)OH salt], the inhibition at 10 µM on IKZF2 (setting [1]) came to 0%. The DC50 on IKZF2 (setting [2]) and on IKZF1 was above 50 µM each time.
As for `O=C1CCC(N2Cc3cc(C4CCN(Cc5cc[nH]c5)CC4)ccc3C2=O)C(=O)N1` (stereo not shown) [Compound I-119, 3-(5-(1-((1H-pyrrol-3-yl)methyl)piperidin-4-yl)-1-oxoisoindolin-2-yl)piperidine-2,6-dione], the inhibition at 10 µM on IKZF2 (setting [1]) is 65%. For the same compound, the DC50 on IKZF2 (setting [2]) was 0.14 µM; on IKZF1, above 30 µM.
As to `O=C1CCC(N2Cc3cc(C4CCN(Cc5ccc6[nH]ncc6c5)CC4)ccc3C2=O)C(=O)N1` (stereo not shown) [Compound I-219, 3-(5-(1-((1H-indazol-5-yl)methyl)piperidin-4-yl)-1-oxoisoindolin-2-yl)piperidine-2,6-dione], the inhibition at 10 µM at IKZF2 (setting [1]) is 80%. In addition, the “IKZF2 protein levels as compared to the control (DMSO)” value on IKZF2 (Prolabel assay in HEK293GT cells, bar graph) was “decreased”. In addition, the DC50 on IKZF2 (setting [2]) is 0.011 µM; at IKZF1, above 25 µM.
As to `O=C1CCC(N2Cc3cc(C4CCN(Cc5ccc(CF)cc5)CC4)ccc3C2=O)C(=O)N1` (stereo not shown) [Compound I-63, 3-(5-(1-(4-(fluoromethyl)benzyl)piperidin-4-yl)-1-oxoisoindolin-2-yl)piperidine-2,6-dione], the inhibition at 10 µM on IKZF2 (setting [1]) worked out at 75%. The figures for the DC50 at IKZF2 (setting [2]) and at IKZF1 were 0.011 µM and above 30 µM, respectively.
The like results for `O=C1CCC(N2Cc3cc(C4CCN(Cc5cc(F)cc(F)c5)CC4)ccc3C2=O)C(=O)N1` (stereo not shown) [Compound I-26, 3-(5-(1-(3,5-difluorobenzyl)piperidin-4-yl)-1-oxoisoindolin-2-yl)piperidine-2,6-dione] were, in that order, 65%, 0.007 µM and above 30 µM.
The like results for `CCCc1ccc(CN2CCC(c3ccc4c(c3)CN(C3CCC(=O)NC3=O)C4=O)CC2)cc1` (stereo not shown) [Compound I-75, 3-(1-oxo-5-(1-(4-propylbenzyl)piperidin-4-yl)isoindolin-2-yl)piperidine-2,6-dione] were, in that order, 80%, 0.02 µM and above 30 µM.
For `O=C1CCC(N2Cc3cc(C4CCN(Cc5ccc(OC(F)(F)F)cc5)CC4)ccc3C2=O)C(=O)N1` (stereo not shown) [Compound I-51, 3-(1-oxo-5-(1-(4-(trifluoromethoxy)benzyl)piperidin-4-yl)isoindolin-2-yl)piperidine-2,6-dione], the inhibition at 10 µM on IKZF2 (setting [1]) stood at 60%. Also, the values for the DC50 at IKZF2 (setting [2]) and on IKZF1 were 0.015 µM and above 30 µM, respectively.
The corresponding values for `O=C1CCC(N2Cc3cc(C4CCN(Cc5ccccn5)CC4)ccc3C2=O)C(=O)N1` (stereo not shown) [Compound I-58, 3-(1-oxo-5-(1-(pyridin-2-ylmethyl)piperidin-4-yl)isoindolin-2-yl)piperidine-2,6-dione] are 60%, 0.053 µM and above 30 µM.
As to `O=C1CCC(N2Cc3cc(C4CCN(Cc5ccc6cc[nH]c6n5)CC4)ccc3C2=O)C(=O)N1` (stereo not shown) [Compound I-140, 3-(5-(1-((1H-pyrrolo[2,3-b]pyridin-6-yl)methyl)piperidin-4-yl)-1-oxoisoindolin-2-yl)piperidine-2,6-dione], the inhibition at 10 µM on IKZF2 (setting [1]) came to 80%. The DC50 is 0.019 µM at IKZF2 (setting [2]) and above 30 µM on IKZF1.
With `CC(C)(C)c1ccc(CN2CCC(c3ccc4c(c3)CN(C3CCC(=O)NC3=O)C4=O)CC2)cc1` (stereo not shown) [Compound I-84, 3-(5-(1-(4-(tert-butyl)benzyl)piperidin-4-yl)-1-oxoisoindolin-2-yl)piperidine-2,6-dione], the inhibition at 10 µM at IKZF2 (10 μM, 24 h, 293GT cells; read-out: IKZF2 % protein reduction at 10 μM, 24 h) came out at 60%. For the same compound, the DC50 was 0.015 µM on IKZF2 (setting [2]) and above 30 µM on IKZF1.
As for `O=C1CCC(N2Cc3cc(C4CCN(Cc5cnc6cnccn56)CC4)ccc3C2=O)C(=O)N1` (stereo not shown) [Compound I-126], at IKZF2 (setting [1]), the inhibition at 10 µM is 60%. Further, the DC50 is 0.39 µM on IKZF2 (setting [2]) and above 30 µM at IKZF1.
The corresponding values for `C[C@H](c1ccccc1)N1CCC(c2ccc3c(c2)CN(C2CCC(=O)NC2=O)C3=O)CC1` (single isomer, unassigned) [Compound I-247] are 70%, 0.017 µM and above 30 µM.
The like results for `O=C1CCC(N2Cc3cc(C4=CCCNC4)ccc3C2=O)C(=O)N1` (stereo not shown) [Compound I-282, 3-(1-oxo-5-(1,2,5,6-tetrahydropyridin-3-yl)isoindolin-2-yl)piperidine-2,6-dione] were, in that order, 0%, above 30 µM and above 30 µM.
The corresponding values for `O=C1CCC(N2Cc3cc(C4CCN(Cc5ccns5)CC4)ccc3C2=O)C(=O)N1` (stereo not shown) [Compound I-290, 3-(5-(1-(isothiazol-5-ylmethyl)piperidin-4-yl)-1-oxoisoindolin-2-yl)piperidine-2,6-dione] are 60%, 0.49 µM and above 30 µM.
For `O=C1CCC(N2Cc3cc(C4CCN(C(c5ccccc5)C(F)F)CC4)ccc3C2=O)C(=O)N1` (stereo not shown) [Compound I-209, 3-(5-(1-(2,2-difluoro-1-phenylethyl)piperidin-4-yl)-1-oxoisoindolin-2-yl)piperidine-2,6-dione], at IKZF2 (setting [1]), the inhibition at 10 µM turned out to be 40%. Besides, the results for the DC50 on IKZF2 (setting [2]) and at IKZF1 were 0.14 µM and above 30 µM, respectively.
The corresponding values for `O=C1CCC(N2Cc3cc(C4CCN(Cc5cccc6c5OCCO6)CC4)ccc3C2=O)C(=O)N1` (stereo not shown) [Compound I-82, 3-(5-(1-((2,3-dihydrobenzo[b][1,4]dioxin-5-yl)methyl)piperidin-4-yl)-1-oxoisoindolin-2-yl)piperidine-2,6-dione] are 60%, 0.004 µM and above 30 µM.
The corresponding values for `O=C1CCC(N2Cc3cc(C4CCN(Cc5cn[nH]c5)CC4)ccc3C2=O)C(=O)N1` (stereo not shown) [Compound I-116, 3-(5-(1-((1H-pyrazol-4-yl)methyl)piperidin-4-yl)-1-oxoisoindolin-2-yl)piperidine-2,6-dione] are 60%, 0.16 µM and above 30 µM.
The corresponding values for `CC(C)(C)c1ccc(C(=O)N2CCC(c3ccc4c(c3)CN(C3CCC(=O)NC3=O)C4=O)CC2)cc1` (stereo not shown) [Compound I-242, 3-(5-(1-(4-(tert-butyl)benzoyl)piperidin-4-yl)-1-oxoisoindolin-2-yl)piperidine-2,6-dione] are 5%, above 30 µM and above 30 µM.
For the compound `O=C1CCC(N2Cc3cc(C4CCN(CC5CC5)CC4)ccc3C2=O)C(=O)N1` (stereo not shown) [Compound I-3, 3-(5-(1-(cyclopropylmethyl)piperidin-4-yl)-1-oxoisoindolin-2-yl)piperidine-2,6-dione], the inhibition at 10 µM at IKZF2 (setting [1]) was 60%. For the same compound, the figures for the DC50 at IKZF2 (setting [2]) and on IKZF1 were 0.023 µM and above 30 µM, respectively.
Take `O=C1CCC(N2Cc3cc(C4CCN(Cc5ncccn5)CC4)ccc3C2=O)C(=O)N1` (stereo not shown) [Compound I-95, 3-(1-oxo-5-(1-(pyrimidin-2-ylmethyl)piperidin-4-yl)isoindolin-2-yl)piperidine-2,6-dione]: on IKZF2 (setting [1]), the inhibition at 10 µM came out at 20%. Besides, the DC50 is 0.13 µM on IKZF2 (setting [2]) and above 30 µM at IKZF1.
The corresponding values for `O=C1CCC(N2Cc3cc(C4CCN(Cc5cccc(C(=O)O)c5)CC4)ccc3C2=O)C(=O)N1` (stereo not shown) [Compound I-74, 3-((4-(2-(2,6-dioxopiperidin-3-yl)-1-oxoisoindolin-5-yl)piperidin-1-yl)methyl)benzoic acid] are 55%, 2.1 µM and above 30 µM.
As to `Cn1ncc(CN2CCC(c3ccc4c(c3)CN(C3CCC(=O)NC3=O)C4=O)CC2)c1N` (stereo not shown) [Compound I-124, 3-(5-(1-((5-amino-1-methyl-1H-pyrazol-4-yl)methyl)piperidin-4-yl)-1-oxoisoindolin-2-yl)piperidine-2,6-dione], the inhibition at 10 µM at IKZF2 (setting [1]) was 40%. In addition, the DC50 is 9.8 µM at IKZF2 (setting [2]) and above 30 µM on IKZF1.
Turning to `O=C1CCC(N2Cc3cc(C4C[C@H]5CC[C@@H](C4)N5Cc4ccccc4)ccc3C2=O)C(=O)N1` (stereo partly shown) [Compound I-265, 3-(5-(8-benzyl-8-azabicyclo[3.2.1]octan-3-yl)-1-oxoisoindolin-2-yl)piperidine-2,6-dione HC(O)OH salt], at IKZF2 (setting [1]), the inhibition at 10 µM stood at 70%. The DC50 was 0.005 µM on IKZF2 (setting [2]) and above 50 µM on IKZF1.
The like results for `O=C1CCC(N2Cc3cc(C4CCN(Cc5cc(C(F)(F)F)cc(C(F)(F)F)c5)CC4)ccc3C2=O)C(=O)N1` (stereo not shown) [Compound I-215, 3-(5-(1-(3,5-bis(trifluoromethyl)benzyl)piperidin-4-yl)-1-oxoisoindolin-2-yl)piperidine-2,6-dione] were, in that order, 50%, 0.019 µM and above 30 µM.
